The NIST ThermoML archive (doi:10.1016/j.fluid.2013.06.021)

Assay: xn = mol fraction of the nth substance listed
Conditions: 101 kPa, Liquid; for speed of sound: Sing-around technique in a fixed-path interferometer; for mass density: Vibrating tube method; for viscosity: Capillary tube (Ostwald / Ubbelohde) method

CCCCOCCO [2-butoxyethan-1-ol] + CCCCO
Conditions	mass density [kg/m3]	speed of sound [m/s]	viscosity [mPa·s]
293.15 K, x1 = 0.0516	816.39	1262.2	–
293.15 K, x1 = 0.1011	822.44	1266.6	–
293.15 K, x1 = 0.1535	828.64	1271.1	–
293.15 K, x1 = 0.2027	834.27	1275.2	–
293.15 K, x1 = 0.2537	839.84	1279.2	–
293.15 K, x1 = 0.3027	844.99	1282.9	–
293.15 K, x1 = 0.4	854.57	1289.8	–
293.15 K, x1 = 0.5055	864.12	1296.7	–
293.15 K, x1 = 0.6054	872.48	1302.5	–
293.15 K, x1 = 0.7025	880.07	1307.9	–
293.15 K, x1 = 0.8042	887.49	1313.2	–
293.15 K, x1 = 0.8552	891.03	1315.9	–
293.15 K, x1 = 0.906	894.44	1318.5	–
293.15 K, x1 = 0.9526	897.48	1320.9	–
298.15 K, x1 = 0.0516	812.543	1245.2	2.586
298.15 K, x1 = 0.1011	818.58	1249.7	2.553
298.15 K, x1 = 0.1535	824.722	1254.2	2.536
298.15 K, x1 = 0.2027	830.281	1258.3	2.524
298.15 K, x1 = 0.2537	835.832	1262.3	2.516
298.15 K, x1 = 0.3027	840.96	1266.1	–
298.15 K, x1 = 0.3028	–	–	2.516
298.15 K, x1 = 0.4	850.503	1272.9	2.527
298.15 K, x1 = 0.5055	860.043	1279.7	2.555
298.15 K, x1 = 0.6054	868.393	1285.6	2.592
298.15 K, x1 = 0.7025	875.94	1290.9	2.645
298.15 K, x1 = 0.8042	883.317	1296.2	2.703
298.15 K, x1 = 0.8552	886.83	1298.8	2.743
298.15 K, x1 = 0.906	890.248	1301.4	2.785
298.15 K, x1 = 0.9526	893.29	1303.8	2.835
303.15 K, x1 = 0.0516	808.67	1228.5	2.269
303.15 K, x1 = 0.1011	814.69	1233	2.243
303.15 K, x1 = 0.1535	820.82	1237.5	2.235
303.15 K, x1 = 0.2027	826.35	1241.5	2.234
303.15 K, x1 = 0.2537	831.87	1245.5	2.229
303.15 K, x1 = 0.3027	836.98	1249.1	–
303.15 K, x1 = 0.3028	–	–	2.235
303.15 K, x1 = 0.4	846.49	1255.9	2.255
303.15 K, x1 = 0.5055	855.99	1262.6	2.303
303.15 K, x1 = 0.6054	864.3	1268.6	2.345
303.15 K, x1 = 0.7025	871.83	1274	2.401
303.15 K, x1 = 0.8042	879.17	1279.4	2.475
303.15 K, x1 = 0.8552	882.67	1282	2.518
303.15 K, x1 = 0.906	886.07	1284.5	2.564
303.15 K, x1 = 0.9526	889.1	1286.7	2.607
308.15 K, x1 = 0.0516	804.78	1211.8	2.029
308.15 K, x1 = 0.1011	810.77	1216.3	2.008
308.15 K, x1 = 0.1535	816.87	1220.7	1.994
308.15 K, x1 = 0.2027	822.39	1224.7	1.98
308.15 K, x1 = 0.2537	827.9	1228.7	1.966
308.15 K, x1 = 0.3027	832.98	1232.3	–
308.15 K, x1 = 0.3028	–	–	1.965
308.15 K, x1 = 0.4	842.45	1239.1	1.968
308.15 K, x1 = 0.5055	851.91	1245.9	1.981
308.15 K, x1 = 0.6054	860.19	1251.9	2.006
308.15 K, x1 = 0.7025	867.68	1257.4	2.045
308.15 K, x1 = 0.8042	875.01	1262.8	2.106
308.15 K, x1 = 0.8552	878.5	1265.3	2.138
308.15 K, x1 = 0.906	881.88	1267.8	2.175
308.15 K, x1 = 0.9526	884.89	1270	2.204
313.15 K, x1 = 0.0516	800.853	1195.2	–
313.15 K, x1 = 0.1011	806.824	1199.7	–
313.15 K, x1 = 0.1535	812.87	1204.1	–
313.15 K, x1 = 0.2027	818.34	1208.2	–
313.15 K, x1 = 0.2537	823.81	1212.2	–
313.15 K, x1 = 0.3027	828.88	1215.9	–
313.15 K, x1 = 0.4	838.34	1222.7	–
313.15 K, x1 = 0.5055	847.79	1229.5	–
313.15 K, x1 = 0.6054	856.04	1235.4	–
313.15 K, x1 = 0.7025	863.5	1240.7	–
313.15 K, x1 = 0.8042	870.78	1246	–
313.15 K, x1 = 0.8552	874.26	1248.5	–
313.15 K, x1 = 0.906	877.63	1251	–
313.15 K, x1 = 0.9526	880.64	1253.2	–

CCCCOCCO [2-butoxyethan-1-ol] + CCCO
Conditions	mass density [kg/m3]	speed of sound [m/s]	viscosity [mPa·s]
293.15 K, x1 = 0.052	812.72	1233.5	–
293.15 K, x1 = 0.1024	820.5	1241.8	–
293.15 K, x1 = 0.1524	827.69	1249.4	–
293.15 K, x1 = 0.1986	833.97	1255.9	–
293.15 K, x1 = 0.2528	840.79	1263	–
293.15 K, x1 = 0.3032	846.73	1269.1	–
293.15 K, x1 = 0.4064	857.67	1280.4	–
293.15 K, x1 = 0.5015	866.6	1289.5	–
293.15 K, x1 = 0.6031	875.08	1298.1	–
293.15 K, x1 = 0.7006	882.33	1305.4	–
293.15 K, x1 = 0.8022	889.07	1312.2	–
293.15 K, x1 = 0.8553	892.31	1315.4	–
293.15 K, x1 = 0.9066	895.25	1318.3	–
293.15 K, x1 = 0.9516	897.7	1320.8	–
298.15 K, x1 = 0.052	808.78	1216.5	1.991
298.15 K, x1 = 0.1024	816.6	1224.8	2.014
298.15 K, x1 = 0.1524	823.84	1232.3	2.048
298.15 K, x1 = 0.1986	830.06	1238.9	2.079
298.15 K, x1 = 0.2528	836.87	1245.9	2.122
298.15 K, x1 = 0.3032	842.76	1252	2.163
298.15 K, x1 = 0.4064	853.64	1263.3	2.256
298.15 K, x1 = 0.5015	862.56	1272.3	2.351
298.15 K, x1 = 0.6031	871.01	1280.9	2.457
298.15 K, x1 = 0.7006	878.24	1288.3	2.558
298.15 K, x1 = 0.8022	884.94	1295.1	2.666
298.15 K, x1 = 0.8553	888.19	1298.3	2.725
298.15 K, x1 = 0.9066	891.15	1301.3	2.779
298.15 K, x1 = 0.9516	893.62	1303.7	2.83
303.15 K, x1 = 0.052	804.75	1199.4	1.751
303.15 K, x1 = 0.1024	812.56	1207.8	1.776
303.15 K, x1 = 0.1524	819.76	1215.4	1.811
303.15 K, x1 = 0.1986	825.96	1221.9	1.844
303.15 K, x1 = 0.2528	832.81	1229	1.883
303.15 K, x1 = 0.3032	838.66	1235.1	1.925
303.15 K, x1 = 0.4064	849.51	1246.3	2.027
303.15 K, x1 = 0.5015	858.44	1255.4	2.129
303.15 K, x1 = 0.6031	866.86	1264	2.233
303.15 K, x1 = 0.7006	874.08	1271.3	2.338
303.15 K, x1 = 0.8022	880.81	1278	2.443
303.15 K, x1 = 0.8553	884.07	1281.3	2.505
303.15 K, x1 = 0.9066	887.02	1284.2	2.559
303.15 K, x1 = 0.9516	889.53	1286.6	2.615
308.15 K, x1 = 0.052	800.67	1182.4	1.578
308.15 K, x1 = 0.1024	808.47	1190.8	1.597
308.15 K, x1 = 0.1524	815.69	1198.4	1.627
308.15 K, x1 = 0.1986	821.89	1205	1.657
308.15 K, x1 = 0.2528	828.69	1212.1	1.69
308.15 K, x1 = 0.3032	834.55	1218.3	1.726
308.15 K, x1 = 0.4064	845.38	1229.5	1.804
308.15 K, x1 = 0.5015	854.29	1238.6	1.874
308.15 K, x1 = 0.6031	862.71	1247.2	1.953
308.15 K, x1 = 0.7006	869.93	1254.4	2.026
308.15 K, x1 = 0.8022	876.64	1261.1	2.11
308.15 K, x1 = 0.8553	879.9	1264.3	2.156
308.15 K, x1 = 0.9066	882.86	1267.2	2.188
308.15 K, x1 = 0.9516	885.32	1269.7	2.218
313.15 K, x1 = 0.052	796.66	1165.4	–
313.15 K, x1 = 0.1024	804.45	1173.7	–
313.15 K, x1 = 0.1524	811.62	1181.4	–
313.15 K, x1 = 0.1986	817.8	1188	–
313.15 K, x1 = 0.2528	824.54	1195.2	–
313.15 K, x1 = 0.3032	830.4	1201.5	–
313.15 K, x1 = 0.4064	841.23	1212.9	–
313.15 K, x1 = 0.5015	850.1	1222	–
313.15 K, x1 = 0.6031	858.52	1230.6	–
313.15 K, x1 = 0.7006	865.71	1237.8	–
313.15 K, x1 = 0.8022	872.48	1244.4	–
313.15 K, x1 = 0.8553	875.69	1247.6	–
313.15 K, x1 = 0.9066	878.69	1250.5	–
313.15 K, x1 = 0.9516	881.14	1252.9	–
